Assay results: BigSolDB 2.1

O=c1c2ccccc2sc2ccccc12
Conditions	solubility (mole fraction)
in 1,4-dioxane, 292.15 K	0.00919
in 1,4-dioxane, 297.05 K	0.01
in 1,4-dioxane, 302.05 K	0.0109
in 1,4-dioxane, 305.05 K	0.0115
in 1,4-dioxane, 307.95 K	0.0121
in 1,4-dioxane, 311.15 K	0.0127
in 1,4-dioxane, 313.85 K	0.0134
in 1,4-dioxane, 316.85 K	0.0141
in 1,4-dioxane, 319.35 K	0.0146
in 1,4-dioxane, 322.55 K	0.0153
in 1,4-dioxane, 326.55 K	0.0163
in 1,4-dioxane, 331.55 K	0.0175
in 1,4-dioxane, 335.95 K	0.0186
in 2-butanone, 292.15 K	0.00309
in 2-butanone, 297.05 K	0.00398
in 2-butanone, 301.95 K	0.00441
in 2-butanone, 306.65 K	0.00519
in 2-butanone, 311.25 K	0.00604
in 2-butanone, 316.15 K	0.00696
in 2-butanone, 321.25 K	0.00805
in 2-butanone, 326.55 K	0.00947
in 2-butanone, 331.55 K	0.0111
in 2-butanone, 335.95 K	0.0124
in THF, 292.15 K	0.00867
in THF, 297.05 K	0.0101
in THF, 301.95 K	0.0114
in THF, 306.65 K	0.0129
in THF, 311.25 K	0.0147
in THF, 316.15 K	0.0167
in THF, 321.25 K	0.0189
in THF, 326.55 K	0.0213
in THF, 331.55 K	0.024
in THF, 335.95 K	0.0274
in acetone, 292.15 K	0.00191
in acetone, 297.05 K	0.00225
in acetone, 302.05 K	0.00265
in acetone, 305.05 K	0.00293
in acetone, 307.95 K	0.00317
in acetone, 311.15 K	0.00356
in acetone, 313.85 K	0.00389
in acetone, 316.85 K	0.00407
in acetone, 319.35 K	0.00456
in acetone, 322.55 K	0.00492
in acetone, 326.55 K	0.0055
in acetonitrile, 292.15 K	0.000466
in acetonitrile, 297.05 K	0.000614
in acetonitrile, 302.05 K	0.000806
in acetonitrile, 305.05 K	0.000947
in acetonitrile, 307.95 K	0.0011
in acetonitrile, 311.15 K	0.00132
in acetonitrile, 313.85 K	0.00147
in acetonitrile, 316.85 K	0.0017
in acetonitrile, 319.35 K	0.00192
in acetonitrile, 322.55 K	0.00225
in acetonitrile, 326.55 K	0.0027
in acetonitrile, 331.55 K	0.00336
in acetonitrile, 335.95 K	0.00411
in dichloromethane, 292.15 K	0.00692
in dichloromethane, 297.05 K	0.00849
in dichloromethane, 301.95 K	0.00981
in dichloromethane, 306.65 K	0.0114
in dichloromethane, 311.25 K	0.0134
in ethanol, 292.15 K	0.000194
in ethanol, 297.05 K	0.000289
in ethanol, 302.05 K	0.000428
in ethanol, 305.05 K	0.000544
in ethanol, 307.95 K	0.000657
in ethanol, 311.15 K	0.000847
in ethanol, 313.85 K	0.00103
in ethanol, 316.85 K	0.00126
in ethanol, 319.35 K	0.00153
in ethanol, 322.55 K	0.00189
in ethanol, 326.55 K	0.00247
in ethanol, 331.55 K	0.00342
in ethanol, 335.95 K	0.00452
in ethyl acetate, 292.15 K	0.00273
in ethyl acetate, 297.05 K	0.00319
in ethyl acetate, 302.05 K	0.00371
in ethyl acetate, 305.05 K	0.00405
in ethyl acetate, 307.95 K	0.00444
in ethyl acetate, 311.15 K	0.00485
in ethyl acetate, 313.85 K	0.00525
in ethyl acetate, 316.85 K	0.00565
in ethyl acetate, 319.35 K	0.00608
in ethyl acetate, 322.55 K	0.00655
in ethyl acetate, 326.55 K	0.00732
in ethyl acetate, 331.55 K	0.0083
in ethyl acetate, 335.95 K	0.00924
in isopropanol, 292.15 K	0.000395
in isopropanol, 297.05 K	0.000539
in isopropanol, 302.05 K	0.000733
in isopropanol, 305.05 K	0.000877
in isopropanol, 307.95 K	0.00106
in isopropanol, 311.15 K	0.00126
in isopropanol, 313.85 K	0.00145
in isopropanol, 316.85 K	0.00172
in isopropanol, 319.35 K	0.00198
in isopropanol, 322.55 K	0.00234
in isopropanol, 326.55 K	0.00288
in isopropanol, 331.55 K	0.00371
in isopropanol, 335.95 K	0.00461
in methanol, 292.15 K	0.000163
in methanol, 297.05 K	0.000225
in methanol, 301.95 K	0.000284
in methanol, 306.65 K	0.000316
in methanol, 311.25 K	0.0004
in methanol, 316.15 K	0.000469
in methanol, 321.25 K	0.00062
in methanol, 326.55 K	0.000788
in methanol, 331.55 K	0.000921
in methanol, 335.95 K	0.00106
in n-propanol, 292.15 K	0.000546
in n-propanol, 297.05 K	0.00061
in n-propanol, 301.95 K	0.000782
in n-propanol, 306.65 K	0.000892
in n-propanol, 311.25 K	0.00114
in n-propanol, 316.15 K	0.00134
in n-propanol, 321.25 K	0.00175
in n-propanol, 326.55 K	0.00214
in n-propanol, 331.55 K	0.00251
in n-propanol, 335.95 K	0.00317
in toluene, 292.15 K	0.00373
in toluene, 297.05 K	0.00456
in toluene, 302.05 K	0.00554
in toluene, 305.05 K	0.00624
in toluene, 307.95 K	0.0069
in toluene, 311.15 K	0.00782
in toluene, 313.85 K	0.00858
in toluene, 316.85 K	0.0096
in toluene, 319.35 K	0.0103
in toluene, 322.55 K	0.0116
in toluene, 326.55 K	0.0134
in toluene, 331.55 K	0.0158
in toluene, 335.95 K	0.0181
